The text below walks through data of patent publication US20120283332A1 (OHIO UNIVERSITY, priority 2009, published 2012).

One data set concerns Type 2 diabetes. Particulars: human, in vivo.
The next data set deals with DM2. Particulars: oral metformin.
The conditions of data set [1]: cited from earlier work.
The conditions of data set [2]: oral; cited from earlier work.

Excerpt for Type 2 diabetes: They had recently stopped all diabetic medications due to side effects. They wished to stay off insulin due to the risk of gaining weight.
Labs: Hgb A1C 11.2%, Total Cholesterol: 159, Triglycerides: 284, HDL: 32, LDL: 70
The patient was not on any diabetic medications due to intolerable gastrointestinal side effects. […] It was decided that an alternative drug delivery mechanism would be appropriate. […] The patient was educated on the usage of the gel, how to apply the gel and potential side effects. The patient was to contact the physician if any adverse effects occurred. […] The patient was to follow-up in one month.
The patient stated that there had been no lifestyle changes.
Lipids were collected with results of total cholesterol: 119, triglycerides: 209, HDL: 29, LDL: 48.
They were interested in trying a medication that will cover their through the evening to get their BS to 200 mg/dL in the morning. They were concerned with anything that will cause them to gain weight.

As to `CCc1ccc(CCOc2ccc(CC3SC(=O)NC3=O)cc2)nc1` (stereo not drawn) [pioglitazone], in the data set on Type 2 diabetes, the “tolerability of previously tried diabetic medications” value (shortened to “tolerability”) is “unable to tolerate”.

For the compound `CN(C)C(=N)N=C(N)N` [metformin], the BS readings entry in the data set with DM2 (before it was stopped) was “improved”. The “side effects leading to stopping” value in the data set with DM2 (stopped 3 months prior to visit) was “severe gastrointestinal side effects”. Further, the “tolerability” value with Type 2 diabetes is “unable to tolerate”. Besides, the “patients experiencing a gastrointestinal side effect” value in data set [1] (oral metformin, anorexia, nausea, vomiting, abdominal discomfort, diarrhea) is listed as “Up to 20%”. The “patients discontinuing therapy due to side effects” value in data set [1] (oral metformin) is reported as “up to 5%”. Further, in data set [1] (patients taking metformin), the “patients developing vitamin B12 deficiency” value is reported as 77%. In addition, the absorption time in data set [2] is 6 h.

As for `N[C@@H](CC(=O)N1CCn2c(nnc2C(F)(F)F)C1)Cc1cc(F)c(F)cc1F` [sitagliptin], in the data set with Type 2 diabetes, the “tolerability” value is “unable to tolerate”.
